Source: ChEMBL document CHEMBL6103578, “Design and synthesis three novel series of derivatives using natural acetylcholinesterase inhibitor-RLMS as template and in vitro, in vivo and in silico activities verification” (Eur J Med Chem, 2025)
Active and inactive are the calls of the source. No cut-off for these calls is given here.

Key:
[1] = tested on: SH-SY5Y; experiment: Neuroprotective effect against H2O2-induced cell injury in human SH-SY5Y cells assessed as cell survival at 25 uM preincubated for 1 hr followed by H2O2 addition measured after 2 hrs by MTT assay (reference value: 57.76 %); type: functional; conditions: time 3 hrs, read-out: Activity
[2] = molecular target: T1, Acetylcholinesterase (Homo sapiens, UniProt P22303); experiment: Inhibition of AChE (unknown origin) using ATCI as substrate preincubated for 20 mins followed by substrate addition measured after 30 mins by DTNB assay
[3] = tested on: SH-SY5Y; experiment: Neuroprotective effect against H2O2-induced cell injury in human SH-SY5Y cells assessed as cell survival at 25 to 100 uM preincubated for 1 hr followed by H2O2 addition measured after 2 hrs by MTT assay (reference value: 57.76 %); type: functional; conditions: dose 25-100 µM, time 3 hrs
[4] = molecular target: T1, Acetylcholinesterase; experiment: Mixed competitive inhibition of AChE (unknown origin) at 2.5 to 15 uM by DTNB assay; conditions: dose 2.5-15 µM
[5] = species on record: Danio rerio; experiment: Anti-alzheimer activity in AlCl3-treated zebrafish assessed as increase in movement distance at 25 to 75 uM treated for 72 hrs with medium replacement containing compound daily by light/dark cycle behavioral test; type: functional, organism-based; conditions: dose 25-75 µM
[6] = species on record: Danio rerio; experiment: Anti-alzheimer activity in AlCl3-treated zebrafish assessed as inhibition of apoptosis in brain treated for 72 hrs with medium replacement containing compound daily by AO staining based analysis; type: functional, organism-based; conditions: dose 25-75 µM
[7] = Toxicity in zebrafish assessed as malformation in animal at 100 uM measured 96 hrs post-fertilization; set-up: species or system Danio rerio; conditions: in vivo
[8] = molecular target: T1, Acetylcholinesterase; experiment: Mixed competitive inhibition of AChE (unknown origin) at 2 to 8 uM by DTNB assay; conditions: dose 2-8 µM
[9] = molecular target: T1, Acetylcholinesterase; experiment: Binding affinity to AChE (unknown origin) assessed as dissociation constant by MST assay
[10] = species on record: Danio rerio; experiment: Anti-alzheimer activity in AlCl3-treated zebrafish assessed as increase in movement speed at 25 to 75 uM treated for 72 hrs with medium replacement containing compound daily by light/dark cycle behavioral test; type: functional, organism-based; conditions: dose 25-75 µM
[11] = Toxicity in zebrafish assessed as deformaties in animal at 100 uM measured 96 hrs post-fertilization; set-up: species or system Danio rerio; conditions: in vivo
[12] = Toxicity in zebrafish assessed as change in heart rate at 1 to 100 uM measured 96 hrs post-fertilization; set-up: species or system Danio rerio; conditions: in vivo, dose 1-100 µM
[13] = Toxicity in zebrafish assessed as decrease in survival rate at 100 uM measured 96 hrs post-fertilization; set-up: species or system Danio rerio; conditions: in vivo

T1 sequence (P22303 whole entry): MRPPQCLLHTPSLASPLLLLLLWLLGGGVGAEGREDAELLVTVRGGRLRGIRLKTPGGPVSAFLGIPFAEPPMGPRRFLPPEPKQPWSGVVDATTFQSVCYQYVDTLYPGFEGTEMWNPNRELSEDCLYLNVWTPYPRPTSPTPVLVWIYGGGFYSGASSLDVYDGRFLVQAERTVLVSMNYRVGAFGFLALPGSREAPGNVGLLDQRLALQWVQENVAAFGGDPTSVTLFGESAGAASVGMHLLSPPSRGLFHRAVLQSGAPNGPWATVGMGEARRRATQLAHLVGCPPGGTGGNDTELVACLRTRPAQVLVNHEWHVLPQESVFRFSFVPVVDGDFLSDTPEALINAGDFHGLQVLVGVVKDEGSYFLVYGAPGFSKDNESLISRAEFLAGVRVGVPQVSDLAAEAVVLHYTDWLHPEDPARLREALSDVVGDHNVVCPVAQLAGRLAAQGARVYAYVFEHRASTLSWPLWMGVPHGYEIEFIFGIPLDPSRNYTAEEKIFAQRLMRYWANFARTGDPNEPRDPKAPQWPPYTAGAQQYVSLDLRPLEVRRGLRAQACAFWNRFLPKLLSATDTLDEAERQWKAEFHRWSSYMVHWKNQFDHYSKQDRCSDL

| SMILES | viability at 25 µM [1] [%] | IC50 [2] [µM] | Activity [3] [%] | further results |
| --- | --- | --- | --- | --- |
| C[C@@H]1CC[C@]2(C(=O)NCCc3c[nH]c4ccccc34)CC[C@]3(C)C(=CC[C@@H]4[C@@]5(C)C[C@@H](O)[C@H](O)[C@@](C)(CO)[C@@H]5CC[C@]43C)[C@@H]2[C@]1(C)O | 72.5 | 51.3 | >57.76 | – |
| COc1ccc(C(=O)O[C@]2(C)[C@H](C)CC[C@]3(C(=O)O)CC[C@]4(C)C(=CC[C@@H]5[C@@]6(C)C[C@@H](O)[C@H](O)[C@@](C)(CO)[C@@H]6CC[C@]54C)[C@@H]32)cc1 | 72.5 | 63.5 | >57.76 | – |
| C[C@@H]1CC[C@]2(C(=O)NCc3cccc(Br)c3)CC[C@]3(C)C(=CC[C@@H]4[C@@]5(C)C[C@@H](O)[C@H](O)[C@@](C)(CO)[C@@H]5CC[C@]43C)[C@@H]2[C@]1(C)O | 72.5 | 78 | >57.76 | – |
| C[C@@H]1CC[C@]2(C(=O)O)CC[C@]3(C)C(=CC[C@@H]4[C@@]5(C)C[C@@H](OC(=O)c6ccc(Cl)cc6)[C@H](OC(=O)c6ccc(Cl)cc6)[C@@](C)(CO)[C@@H]5CC[C@]43C)[C@@H]2[C@]1(C)O | 72.5 | 21.2 | >57.76 | – |
| C[C@@H]1CC[C@]2(C(=O)NCc3ccccc3)CC[C@]3(C)C(=CC[C@@H]4[C@@]5(C)C[C@@H](O)[C@H](O)[C@@](C)(CO)[C@@H]5CC[C@]43C)[C@@H]2[C@]1(C)O | 72.5 | 65.1 | >57.76 | – |
| C[C@@H]1CC[C@]2(C(=O)O)CC[C@]3(C)C(=CC[C@@H]4[C@@]5(C)C(C=O)=C[C@@](C)(COC(=O)c6ccc(F)cc6)[C@@H]5CC[C@]43C)[C@@H]2[C@]1(C)O | – | 71.9 | <57.76 | – |
| C[C@@H]1CC[C@]2(C(=O)NCc3ccccc3Br)CC[C@]3(C)C(=CC[C@@H]4[C@@]5(C)C[C@@H](O)[C@H](O)[C@@](C)(CO)[C@@H]5CC[C@]43C)[C@@H]2[C@]1(C)O | – | 47.7 | >57.76 | – |
| C[C@@H]1CC[C@]2(C(=O)NCc3ccc(Cl)cc3)CC[C@]3(C)C(=CC[C@@H]4[C@@]5(C)C[C@@H](O)[C@H](O)[C@@](C)(CO)[C@@H]5CC[C@]43C)[C@@H]2[C@]1(C)O | – | 64.8 | >57.76 | – |
| Cc1c(C)c2c(c(C)c1O)CCC(C)(C(=O)O)O2 (stereo unspecified) [TROLOX] | 72.6 | – | >57.76 | – |
| C[C@@H]1CC[C@]2(C(=O)O)CC[C@]3(C)C(=CC[C@@H]4[C@@]5(C)C[C@@H](OC(=O)c6ccc(Cl)cc6)[C@H](OC(=O)c6ccc(Cl)cc6)[C@@](C)(COC(=O)c6ccc(Cl)cc6)[C@@H]5CC[C@]43C)[C@@H]2[C@]1(C)O | – | 5.91 | >57.76 | – |
| C[C@@H]1CC[C@]2(C(=O)O)CC[C@]3(C)C(=CC[C@@H]4[C@@]5(C)C[C@@H](OC(=O)CCc6ccccc6)[C@H](OC(=O)CCc6ccccc6)[C@@](C)(CO)[C@@H]5CC[C@]43C)[C@@H]2[C@]1(C)O | 72.5 | 5.84 | >57.76 | inhibition [4]: Active |
| C[C@@H]1CC[C@]2(C(=O)O)CC[C@]3(C)C(=CC[C@@H]4[C@@]5(C)C(C=O)=C[C@@](C)(CO)[C@@H]5CC[C@]43C)[C@@H]2[C@]1(C)O | – | > 100 | >57.76 | – |
| C[C@@H]1CC[C@]2(C(=O)NCc3ccccc3Cl)CC[C@]3(C)C(=CC[C@@H]4[C@@]5(C)C[C@@H](O)[C@H](O)[C@@](C)(CO)[C@@H]5CC[C@]43C)[C@@H]2[C@]1(C)O | 80 | 3.7 | >57.76 | Activity [5]: Active; Activity [6]: Dose-dependent-effect; Activity [7]: Toxic; inhibition [8]: Active; Kd [9]: 5.37 µM; Activity [10]: Active; Activity [11]: Toxic; Activity [12]: Non-toxic; Activity [13]: Toxic |
| C[C@@H]1CC[C@]2(C(=O)O)CC[C@]3(C)C(=CC[C@@H]4[C@@]5(C)C[C@@H](O)OCC(C)(C=O)[C@@H]5CC[C@]43C)[C@@H]2[C@]1(C)O (stereo partly specified) | – | > 100 | >57.76 | – |
| C[C@@H]1CC[C@]2(C(=O)NCc3ccc(F)cc3)CC[C@]3(C)C(=CC[C@@H]4[C@@]5(C)C[C@@H](O)[C@H](O)[C@@](C)(CO)[C@@H]5CC[C@]43C)[C@@H]2[C@]1(C)O | – | > 100 | <57.76 | – |
| CCCCCC(=O)OC[C@]1(C)C=C(C=O)[C@@]2(C)[C@H]1CC[C@]1(C)[C@@H]2CC=C2[C@H]3[C@](C(=O)O)(CC[C@@H](C)[C@@]3(C)O)CC[C@]21C | – | > 100 | >57.76 | – |
| C[C@@H]1CC[C@]2(C(=O)NC3CCCCC3)CC[C@]3(C)C(=CC[C@@H]4[C@@]5(C)C[C@@H](O)[C@H](O)[C@@](C)(CO)[C@@H]5CC[C@]43C)[C@@H]2[C@]1(C)O | – | 80.4 | >57.76 | – |
| C[C@@H]1CC[C@]2(C(=O)O)CC[C@]3(C)C(=CC[C@@H]4[C@@]5(C)C[C@@H](O)[C@H](O)[C@@](C)(CO)[C@@H]5CC[C@]43C)[C@@H]2[C@]1(C)O | 72.8 | 23.2 | >57.76 | – |
| C[C@@H]1CC[C@]2(C(=O)NCc3cccc(Cl)c3)CC[C@]3(C)C(=CC[C@@H]4[C@@]5(C)C[C@@H](O)[C@H](O)[C@@](C)(CO)[C@@H]5CC[C@]43C)[C@@H]2[C@]1(C)O | – | 63 | >57.76 | – |
